Assay results reported in patent publication US7189680B2, “5-halo-6-aryl[1,2,4]triazolo[1,5-a]pyrimidin-7-amines” (Bayer Cropscience AG, priority 2001, dated 2007).

System: not listed separately
Assay: logP determination by HPLC (EEC directive 79/831 Annex V. A8)
Type: physicochemical
Conditions: HPLC gradient method, acetonitrile/0.1% aqueous phosphoric acid; Table 1
Experimental: *) The logP values were determined in accordance with EEC directive 79/831 Annex V. A8 by HPLC (gradient method, acetonitrile/0.1% aqueous phosphoric acid)

| logP* | SMILES |
| --- | --- |
| 2.82 | Fc1ccc(CONc2c(-c3ccccc3F)c(Cl)nc3ncnn23)cc1 [Example 62] |
| 3.04 | Fc1c(F)c(F)c(-c2c(Cl)nc3ncnn3c2NOC2CCCCO2)c(F)c1F (centres unmarked) [Example 76] |
| 3.33 | NN(c1c(-c2c(F)cc(F)cc2F)c(Cl)nc2ncnn12)C1CCCCC1 [Example 125] |
| 3.32 | Fc1cc(F)c(-c2c(Cl)nc3ncnn3c2NOCc2c(Cl)cccc2Cl)c(F)c1 [Example 86] |
| 2.63 | CON(C)c1c(-c2c(F)cc(F)cc2F)c(Cl)nc2ncnn12 [Example 16] |
| 4.07 | Fc1c(F)c(F)c(-c2c(Cl)nc3ncnn3c2NOCc2cc(Cl)cc(Cl)c2)c(F)c1F [Example 113] |
| 2.43 | Fc1cc(F)c(-c2c(Cl)nc3ncnn3c2NOCOc2ccc(Cl)nc2)c(F)c1 [Example 15] |
| 3.38 | Fc1cc(F)c(-c2c(Cl)nc3ncnn3c2NOCc2ccc(C(F)(F)F)cc2)c(F)c1 [Example 10] |
| 3.37 | NN(c1c(-c2c(Cl)cccc2Cl)c(Cl)nc2ncnn12)C1CCCC1 [Example 161] |
| 2.48 | C=CCONc1c(-c2c(F)cc(F)cc2F)c(Cl)nc2ncnn12 [Example 42] |
| 3.49 | CCCCONc1c(-c2c(F)c(F)c(F)c(F)c2F)c(Cl)nc2ncnn12 [Example 119] |
| 2.63 | NN(CC1CC1)c1c(-c2c(F)cccc2Cl)c(Cl)nc2ncnn12 [Example 162] |

| SMILES | logP* |
| --- | --- |
| CCN(N)c1c(-c2c(F)cc(F)cc2F)c(Cl)nc2ncnn12 [Example 17] | 2.27 |

System: Fusarium nivale (var. majus)
Assay: Fusarium nivale (var. majus) test (wheat)/protective
Type: in vivo
Conditions: protective, 500 g/ha, evaluation 4 days following inoculation
Experimental: (§1) To produce a suitable preparation of active compound, one part by weight of active compound is mixed with the stated amounts of solvent and emulsifier, and the concentrate is diluted with water to the desired concentration.
To test for protective activity, young plants are sprayed with the active compound preparation at the application rate indicated. After the spray coating has dried on, the plants are sprayed with a conidia suspension of Fusarium nivale (var. majus).
The plants are placed in a greenhouse under transparent incubation hoods at a temperature of about 15° C. and a relative humidity of about 100%.
Evaluation is made 4 days following inoculation. 0% denotes an efficacy corresponding to that of the control, whereas an efficacy of 100% means that no infestation is observed.

| SMILES | Efficacy in % |
| --- | --- |
| CCN(N)c1c(-c2c(F)cc(F)cc2F)c(Cl)nc2ncnn12 [drawing 44] | 80% |
| CCCN(N)c1c(-c2c(F)cc(F)cc2F)c(Cl)nc2ncnn12 [drawing 43] | 80% |
| CNN(C)c1c(-c2c(F)cc(F)cc2F)c(Cl)nc2ncnn12 [drawing 45] | 93% |

System: Venturia inaequalis
Assay: Venturia test (apple)/protective
Type: in vivo
Conditions: protective, 100 g/ha, evaluation 10 days following inoculation
Experimental: as §1
To test for protective activity, young plants are sprayed with the active compound preparation at the application rate indicated. After the spray coating has dried on, the plants are inoculated with an aqueous conidia suspension of the apple scab causative organism, Venturia inaequalis, and then remain in an incubation cabin for 1 day at about 20° C. and 100% relative humidity.
The plants are placed in a greenhouse at a temperature of about 15° C. and a relative humidity of about 90%.
Evaluation is made 10 days following inoculation. 0% denotes an efficacy corresponding to that of the control, whereas an efficacy of 100% means that no infestation is observed.

| SMILES | Efficacy in % |
| --- | --- |
| CN(C)Nc1c(-c2c(F)cc(F)cc2F)c(Cl)nc2ncnn12 [drawing 46] | 94% |

System: Alternaria solani
Assay: Alternaria test (tomato)/protective
Type: in vivo
Conditions: protective, 750 g/ha, evaluation 7 days after inoculation
Experimental: To produce an appropriate preparation of active compound, 1 part by weight of active compound is mixed with the stated amounts of solvent and emulsifier, and the concentrate is diluted with water to the desired concentration.
To test for protective activity, young tomato plants are sprayed with the active compound preparation at the application rate indicated. One day after treatment, the plants are inoculated with a spore suspension of Alternaria solani and then stand at 100% relative humidity and 20° C. for 24 h. The plants subsequently stand at 96% relative humidity and a temperature of 20° C.
Evaluation is made 7 days after inoculation. 0% denotes an efficacy corresponding to that of the control while an efficacy of 100% means that no infestation is observed.

| SMILES | Efficacy in % |
| --- | --- |
| CCCN(N)c1c(-c2c(F)cc(F)cc2F)c(Cl)nc2ncnn12 [drawing 47] | 94% |
| NN(CC1CCCCC1)c1c(-c2c(F)cc(F)cc2F)c(Cl)nc2ncnn12 [drawing 50] | 94% |
| CCN(N)c1c(-c2c(F)cc(F)cc2F)c(Cl)nc2ncnn12 [drawing 48] | 89% |
| CC(C)(C)NNc1c(-c2c(F)cc(F)cc2F)c(Cl)nc2ncnn12 [drawing 51] | 94% |
| C=CCNNc1c(-c2c(F)cc(F)cc2F)c(Cl)nc2ncnn12 [drawing 49] | 94% |

System: not given
Assay: not given
Conditions: not given

| melting point | SMILES |
| --- | --- |
| 165 to 168 °C | CN(C)Nc1c(-c2c(F)cc(F)cc2F)c(Cl)nc2ncnn12 [Example 1, 5-chloro-7-(2,2-dimethylhydrazino)-6-(2,4,6-trifluorophenyl)[1,2,4]-triazolo[1,5-a]pyrimidine] |
